Assay results: patent publication EP0053325A1, “Antimicrobic triazole derivatives” (BAYER AG, priority 1980, dated 1982)

Experiments:
[1] = tested on: Dermatophyten und Schimmelpilze; Hefen; test: Antimycotic in-vitro activity, serial dilution test; format: cell-based; conditions: Reihenverdünnungstest, 5 x 10^4 Keimen/ml Substrat, 20°C, 24 bis 96 Stunden; compared with prior-art compounds (A) and (B)
Method: Die in-vitro-Prüfungen wurden im Reihenverdünnungstest mit Keiminokula von durchschnittlich 5 x 10^4 Keimen/ml Substrat durchgeführt. Als Nährmedium dienten • a) für Dermatophyten und Schimmelpilze: Sabourand's milieu d'épreuve • b) für Hefen: Fleischextrakt-Traubenzucker-Bouillon.
Die Bebrütungstemperatur betrug 20°C, die Bebrütungsdauer lag bei 24 bis 96 Stunden.

[2] = tested on: Candida; test: Antimycotic in-vivo activity (oral) in mouse candidosis; conditions: Mäuse SPF-CF1 infected i.v. with 1 - 2 x 10^6 Candida-Zellen, 50 - 100mg/ kg one hour before and seven hours after infection, survival, compared with (A) and (B)
Method: Mäuse vom Typ SPF-CF1 wurden intravenös mit 1 - 2 x 10^6 logarithmisch wachsenden Candida-Zellen, die in physiologischer Kochsalzlösung suspendiert werden, infiziert. Eine Stunde vor und sieben Stunden nach der Infektion werden die Tiere mit jeweils 50 - 100mg/ kg Körpergewicht der Präparate oral behandelt.
Unbehandelte Tiere starben 3 bis 6 Tage post infektionen. Die Ueberlebensrate am 6.Tag post infektionem betrug bei unbehandelten Kontrolltieren etwa 5 %. In diesem Test zeigen z.B. die erfindungsgemäßen Verbindungen 3, 9.

Row | SMILES | antimykotische Wirkung [1] | Wirkung [2]
1 | CC(C)(C)C(O)/C(=C\c1ccccc1C(F)(F)F)n1cncn1 (stereo not drawn) [Beispiel 2, 4.4-Dimethyl-2-(1,2,4-triazol-1-yl)-1-(2-trifluormethylphenyl)-1-penten-3-ol] | bessere antimykotische Wirkung als die aus dem Stand der Technik bekannten Verbindungen (A) und (B) | –
2 | CC(C)(C)C(O)C(=Cc1ccc(C(F)(F)F)cc1)n1cncn1 (stereo not drawn) [Beispiel 3, 4,4-Dimethyl-2-(1,2,4-triazol-1-yl)-1-(4-trifluormethylphenyl)-1-penten-3-ol] | bessere antimykotische Wirkung als die aus dem Stand der Technik bekannten Verbindungen (A) und (B) | bessere Wirkung als die aus dem Stand der Technik bekannten Verbindungen (A) und (B)
3 | CC(C)(C)C(O)/C(=C/c1ccc([N+](=O)[O-])cc1)n1cncn1 (stereo not drawn) [Beispiel 9] | – | bessere Wirkung als die aus dem Stand der Technik bekannten Verbindungen (A) und (B)
4 | CC(C)(C)C(O)/C(=C\c1ccc([N+](=O)[O-])cc1)n1cncn1 (stereo not drawn) [Beispiel 10] | bessere antimykotische Wirkung als die aus dem Stand der Technik bekannten Verbindungen (A) und (B) | bessere Wirkung als die aus dem Stand der Technik bekannten Verbindungen (A) und (B)
5 | CC(C)(C)C(O)/C(=C\c1ccc(C(F)(F)F)cc1Cl)n1cncn1 (stereo not drawn) [Beispiel 12] | bessere antimykotische Wirkung als die aus dem Stand der Technik bekannten Verbindungen (A) und (B) | bessere Wirkung als die aus dem Stand der Technik bekannten Verbindungen (A) und (B)
6 | CC(C)(C)C(O)/C(=C\c1ccc(OC(F)(F)F)cc1)n1cncn1 (stereo not drawn) [Beispiel 14] | bessere antimykotische Wirkung als die aus dem Stand der Technik bekannten Verbindungen (A) und (B) | bessere Wirkung als die aus dem Stand der Technik bekannten Verbindungen (A) und (B)
7 | CC(C)(C)C(O)/C(=C\c1ccc(SC(F)(F)F)cc1)n1cncn1 (stereo not drawn) [Beispiel 16] | bessere antimykotische Wirkung als die aus dem Stand der Technik bekannten Verbindungen (A) und (B) | –
8 | CC(C)(C)C(O)/C(=C\c1ccc(C(F)(F)F)cc1)n1cncn1 (stereo not drawn) [Beispiel 18] | bessere antimykotische Wirkung als die aus dem Stand der Technik bekannten Verbindungen (A) und (B) | bessere Wirkung als die aus dem Stand der Technik bekannten Verbindungen (A) und (B)
9 | CC(C)(C)C(O)/C(=C\c1ccc(C(F)(F)F)c(Cl)c1)n1cncn1 (stereo not drawn) [Beispiel 20] | bessere antimykotische Wirkung als die aus dem Stand der Technik bekannten Verbindungen (A) und (B) | –
10 | CC(C)(C)C(O)/C(=C\c1ccc(OC(F)(F)F)c(Cl)c1)n1cncn1 (stereo not drawn) [Beispiel 22] | bessere antimykotische Wirkung als die aus dem Stand der Technik bekannten Verbindungen (A) und (B) | –
